Results on six compounds are retold here after paper PMC9995734, “Polysulfide metabolizing enzymes influence SqrR-mediated sulfide-induced transcription by impacting intracellular polysulfide dynamics” (PNAS Nexus, 2023).

Series [1] deals with T1, SqrR (Rhodobacter capsulatus, UniProt D5AT91).
T1 construct: recombinant, full-length, reduced C9S protomer 12295 amu
T1 sequence (D5AT91 15-124): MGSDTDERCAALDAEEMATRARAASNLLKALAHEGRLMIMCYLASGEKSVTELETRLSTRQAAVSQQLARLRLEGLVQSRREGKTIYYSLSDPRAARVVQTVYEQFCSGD
Briefly: fluorescence anisotropy of DNA dissociation; LC-ESI-MS of adducts. Type of series: binding. The note with it: covalent; pseudo-first-order oxidation of C41/C107; 20-fold excess sulfane sulfur, persulfide made in situ; DNA-bound SqrR; 25 mM HEPES pH 7.0, 400 mM NaCl, 1 mM EDTA, 25°C. The source says:
fluorescence anisotropy of DNA dissociation; LC-ESI-MS of adducts on SqrR

For series [2], the target named is T2, SQR (Rhodobacter capsulatus, UniProt D5APH8).
T2 sequence (D5APH8 1-427): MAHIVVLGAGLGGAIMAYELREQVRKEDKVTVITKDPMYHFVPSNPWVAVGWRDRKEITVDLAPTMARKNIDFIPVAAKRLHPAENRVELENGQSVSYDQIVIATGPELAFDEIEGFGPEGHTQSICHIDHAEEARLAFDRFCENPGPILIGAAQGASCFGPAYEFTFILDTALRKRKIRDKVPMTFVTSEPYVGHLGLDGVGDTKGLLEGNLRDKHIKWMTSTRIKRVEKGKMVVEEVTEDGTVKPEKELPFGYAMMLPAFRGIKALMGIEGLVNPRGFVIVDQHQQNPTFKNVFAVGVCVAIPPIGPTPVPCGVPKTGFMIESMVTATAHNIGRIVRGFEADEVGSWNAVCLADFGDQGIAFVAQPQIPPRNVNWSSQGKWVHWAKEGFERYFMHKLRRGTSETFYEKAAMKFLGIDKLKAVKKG
The series is described as follows: co-purification. The series is classed as binding. The following applies: noncovalently bound.

Series [3] concerns the target T2, SQR. The series is described as follows: steady-state sulfide:quinone reductase assay. The following applies: electron acceptor at 100 μM; 4 mM KCN as S0 acceptor, Na2S 0-640 μM, 100 nM SQR. Type of series: biochemical.
Series [4] concerns SqrR C9S, CysSSH-treated (oxidized) (Rhodobacter capsulatus (SB1003?)). The series is described as follows: fluorescence anisotropy. The note with it: SqrR titrated into fluorescein-labeled operator in quartz cuvette without TCEP, buffer, salt, pH and temperature not given in the …. For orientation: In fluorescence polarisation assays a small probe gives low polarisation when free and higher when bound to something large.

Series [5] relates to SqrR C9S (reduced) (Rhodobacter capsulatus (SB1003?)). The series is described as follows: fluorescence anisotropy. The following applies: SqrR titrated into fluorescein-labeled operator in quartz cuvette without TCEP, buffer, salt, pH and temperature not given in the ….
In series [6] the test system is SqrR C9S, GSSH-treated (oxidized) (Rhodobacter capsulatus (SB1003?)). The series is described as follows: fluorescence anisotropy. The note with it: SqrR titrated into fluorescein-labeled operator in quartz cuvette without TCEP, buffer, salt, pH and temperature not given in the ….

`N[C@@H](CSS)C(=O)O` [cysteine persulfide]: in series [1], the “kox [x 10^-3 s^-1]^a / CSSH” value was 3.8 ± 0.1 x 10^-3 s^-1. On to `Cc1cc2nc3c(=O)[nH]c(=O)nc-3n(C[C@H](O)[C@H](O)[C@H](O)COP(=O)(O)OP(=O)(O)OC[C@H]3O[C@@H](n4cnc5c(N)ncnc54)[C@H](O)[C@@H]3O)c2cc1C` [flavin adenine dinucleotide], for which the co-purification entry in series [2] was “recombinant R. capsulatus SQR noncovalently bound with flavin adenine dinucleotide (FAD)”.

Take `N[C@@H](CCC(=O)N[C@@H](CSS)C(=O)NCC(=O)O)C(=O)O` [glutathione persulfide]: the “kox [x 10^-3 s^-1]^a / GSSH” value in series [1] was 0.86 ± 0.05 x 10^-3 s^-1. For `CC1=CC(=O)c2ccccc2C1=O` [menadione], the “steady-state sulfide:quinone reductase assay” value in series [3] is listed as “the steady-state activity was higher with MD”.

As to `COC1=C(OC)C(=O)C(CC=C(C)C)=C(C)C1=O` [ubiquinone-1], in series [3], the “steady-state sulfide:quinone reductase assay” value was “the activity with UQ-1 was also sufficient for further analyses”.

In the case of “TGACATATTCACAACTCGGAATGTAA / TTACATTCCGAGTGGTGAATATGTCA”, the Ka is 1.8 10^5 M-1 in series [4], 270 10^5 M-1 in series [5] and 2.5 10^5 M-1 in series [6].
